Measurements: paper PMC4575386, “Intact cell mass spectrometry as a rapid and specific tool for the differentiation of toxic effects in cell-based ecotoxicological test systems” (Analytical and Bioanalytical Chemistry, 2015)
Values joined by “and” are separate entries in the source; they are usually repeats but may differ in a detail not shown here. Equal entries are not always repeated.

Key:
[1] = tested on: RTL-W1; design: method as in PMID 24416442; details: RTL-W1, in preparation for micronucleus assays; cited from earlier work
[2] = in vitro; details: rainbow trout (Oncorhynchus mykiss)
Excerpt: (§1) Subsequently, medium was replaced with exposure medium.

[3] = tested on: RTL-W1 cells; assay: Intact cell MALDI-TOF mass spectrometry (IC-MS) profiles after 24 h toxin exposure; assay type: cell-based, rainbow trout (Oncorhynchus mykiss); details: for number of IC-MS peaks that changed significantly through the toxin exposure: 24 h exposure
Description: For IC-MS studies, cells were seeded in T25 cell culture flasks with a total amount of 1.7 × 10^6 cells. […] Toxin exposure was performed according to the viability studies.
After 24 h of toxin exposure, cells were harvested and washed with PBS at 2000×g, 4 °C for 5 min (Eppendorf 5424, Hamburg, Germany) based on the method detailed by Dong et al.. The total number of cells was calculated using an automated cell counter (Cedex XS Analyzer, Roche Innovatis, Bielefeld, Germany). The cell pellets were stored at −20 °C until IC-MS analysis.
According to the calculated cell number, stock solutions with 5 × 10^4 cells per μL as well as further dilutions of 2 × 10^4 and 1 × 10^4 cells per μL were prepared with PBS und stored on ice prior to IC-MS.
Samples and matrix solutions were deposited on the MALDI-TOF MS target layer by layer and successively air dried. First, a thin layer of saturated SA in ethanol was applied to an Opti-TOF 384 well insert (Kratos Analytical, Manchester, UK), followed by 0.5 μL of the sample solution and, finally, covered with 0.5 μL of SA matrix (38 mg/ml in water/ACN/TFA 40/60/0.2 (v/v/v)) which was presented by Munteanu et al.. All sample dilutions were spotted in duplicate.
MALDI-TOF mass spectra were obtained using an Axima Confidence mass spectrometer (Shimadzu Biotech, Manchester, UK) equipped with a 337-nm nitrogen laser. The filter for regulation of the laser firing power was set to 65. To generate representative profiles, a total of 600 laser shots were accumulated and averaged for each sample. Protein mass fingerprints were obtained in the linear, positive mode at a maximal laser repetition rate of 50 Hz within a mass range of 2000 to 20,000 Da.
MALDI-TOF MS data processing was performed using the LaunchpadTM v. 2.9 software (Shimadzu Biotech). A set of 10 peaks that occurred in the majority of spectra and were evenly distributed across the whole mass range were used for internal calibration.
For peak acquisition, an average smoothing method was performed with a smoothing filter width of 50 channels and a baseline filter width of 100 channels. […] For each spotted sample, a list of spectrum peaks was generated and analyzed statistically. The masses of equally treated samples were matched and means and standard deviations of ion abundances calculated. […] For principal component analysis (PCA), relative ion abundances were calculated and data normalized according to the control treatments. […]
The 15 distinctive peaks between m/z 4562 and m/z 15,292 were analyzed for each toxin treatment: The arithmetic mean of the ion abundances was calculated from the six replicates and the direction of deviation from the control treatment was determined and tested for significance (paired two-sample t test) (Table 2).

[4] = Solubility in the culture medium (observation); assay type: physicochemical; details: high concentrations resulted in precipitation
[5] = tested on: RTL-W1 cells; assay: Viability studies (CellTiter-Blue® and CellTiter-Glo®, not told apart); details: 24 h
Excerpt: as §1

[6] = tested on: RTL-W1 cells; design: method as in earlier work; details: cited from earlier work
[7] = tested on: RTL-W1 cells; details: 24 h exposure, L15/ex medium
Description: (§2) In this study, RTL-W1, a liver cell line from rainbow trout (Oncorhynchus mykiss) was used. […] The cells were routinely grown according to the method detailed by Hinger et al. [23] at 20 °C in Leibovitz L15 medium (Biochrom, Berlin, Germany) supplemented with 10 % fetal calf serum (Biochrom), 5 mM L-alanyl-L-glutamin (Biochrom) and 1 % antibiotics (Gibco by Life Technologies). Cells were grown to approximately 90 % confluency before passaging for experimental use.
(§3) Viability studies were performed in 96-well assay plates. Cells were seeded at a density of 20,000 viable cells/well and cultivated for approximately 24 h. Subsequently, medium was replaced with exposure medium. […]
(§4) After 24 h, the cultures were assayed for viability according to the manufacturer’s instructions (Promega). After a final incubation time of 4 h for CellTiter-Blue® Viability Assay, fluorescence was recorded at 540/595 nm on Tecan infinite 200 Pro microtiter plate reader (Tecan, Männedorf, Switzerland). The integration time for luminescence detection (CellTiter-Glo® Luminescent Cell Viability Assays) on Tecan GENios Plus microtiter plate reader (Tecan) was 500 ms per well.
(§5) Statistical analysis and EC50 calculations were performed using GraphPad Prism (Graphpad Software, San Diego, USA). […] EC50 values were calculated with a sigmoid dose–response fit and automatic outlier detection.

[8] = tested on: RTL-W1 cells; design: method as in earlier work; details: cited from earlier work; remark: listed apart in the source
[9] = tested on: RTL-W1 cells; details: 24 h exposure, L15/ex medium; remark: listed apart in the source
Description: as §2, §3, §4, §5

## c1ccc2nc3ccccc3cc2c1 [Acridine, acridine]
[1]
  EC20, neutral red retention assay: 40.9 mg/L and 228 μM
[2]
  viability at 24 h, 150 µM: ~50%
[3]
  number of IC-MS peaks that changed significantly through the toxin exposure: seven

## O=c1cc(-c2ccccc2)oc2ccc3ccccc3c12 [BNF, β-naphthoflavone]
[4]
  solubility in the culture medium: low solubility
[5]; vs control
  concentrations with significant decrease in viability: 10 µM and 20 µM
[2]
  viability at 24 h, 50 µM: ~50%
[3]
  number of IC-MS peaks that changed significantly through the toxin exposure: nine

## O=S(=O)([O-])[O-].[Cu+2] [Copper sulfate, copper sulfate]
[6]
  EC50 (membrane integrity), literature value: 6.56 µg/mL
[7]
  EC50 cytotoxicity, CellTiter-Blue®, 24 h: 8.23 µg/mL
[5]; 9 mg/L
  viability impairment: roughly 50%
[8]
  EC50 (redox activity), literature value: 3.69 µg/mL
[9]
  EC50 cytotoxicity, CellTiter-Glo®, 24 h: 10.08 µg/mL
[3]; 2 mg/L, lowest concentration
  IC-MS profile behavior: apoptotic behavior
[3]
  number of IC-MS peaks that changed significantly through the toxin exposure: eight
